The values that follow are results of earlier work, collected in US10927113B2, “Process for preparing purine derivatives” (Cyclacel Limited, priority 2017, dated 2021).

The test system of one data set is CDK. The settings on record: background statement referring to WO 2008/122767.
Data set [1] relates to a range of different cell lines. The settings on record: background statement.

For the compound `CC[C@H](Nc1nc(NCc2cnc(C)cc2C)c2ncn(C(C)C)c2n1)[C@@H](C)O` [Compound [1]], the CDK inhibitory activity result in the data set on CDK is listed as “potent CDK inhibitory activity”. Further, the “potency in cellular toxicity studies” value in data set [1] is on record as “surprisingly high potency”.
